# Laboratory results reported in ChEMBL document CHEMBL2401697, “Indazoles as potential c-Met inhibitors: design, synthesis and molecular docking studies” (Eur J Med Chem, 2013).
# System: MKN-45
# Test: Cytotoxicity against human MKN45 cells after 1 hr by Western blotting analysis
# Conditions: MKN-45, 1 h
row,SMILES,IC50 [µM]
1,c1cnc2ccc(Cn3ncc4ccc(-c5cnn(CCOC6CCCCO6)c5)cc43)cc2c1 (stereo not given),14
2,OCCn1cc(-c2ccc3cn(Cc4ccc5ncccc5c4)nc3c2)cn1,110
3,OCCn1cc(-c2ccc3cnn(Cc4ccc5ncccc5c4)c3c2)cn1,6.72
4,CC(C)(C)[Si](C)(C)O[C@H]1CC[C@H](n2cc(-c3ccc4cn(Cc5ccc6ncccc6c5)nc4c3)cn2)CC1,1300
5,c1cnc2ccc(Cn3cc4ccc(-c5cnn(CCOC6CCCCO6)c5)cc4n3)cc2c1 (stereo not given),12
6,CC(C)(C)[Si](C)(C)O[C@H]1CC[C@H](n2cc(-c3ccc4cnn(Cc5ccc6ncccc6c5)c4c3)cn2)CC1,11
7,Cn1cc(-c2ccc3cn(Cc4ccc5ncccc5c4)nc3c2)cn1,106
8,O[C@H]1CC[C@H](n2cc(-c3ccc4cnn(Cc5ccc6ncccc6c5)c4c3)cn2)CC1,5.45
9,O[C@H]1CC[C@H](n2cc(-c3ccc4cn(Cc5ccc6ncccc6c5)nc4c3)cn2)CC1,13.4
10,Cn1cc(-c2ccc3cnn(Cc4ccc5ncccc5c4)c3c2)cn1,12.9
